Source: publication PMC7357788, “Overlapping functions and protein-protein interactions of LRR-extensins in Arabidopsis” (PLoS Genetics, 2020)
“Also recorded” adds a separate entry of the source.

Key:
[1] = molecular target: LRX4 (LRX4^ΔE-FLAG); assay: BLITZ (biolayer interferometry) RALF1-LRX4 binding; set-up: species or system Arabidopsis thaliana; conditions: purified LRX^ΔE expressed in N. benthamiana, synthetic RALF1 peptide, association 120 s, dissociation 120 s
Method: (§1) The kinetics of the interaction of LRX proteins with RALF1 were tested with Biolayer Interferometry (BLITZ). The LRX^ΔE-FLAG proteins of LRX1, LRX3, LRX4, and LRX5 used for this experiment were expressed transiently in tobacco. […] For RALF1, in vitro synthesized peptide was used. […] While the LRX^ΔE-FLAG had to be soluble in order to get purified prior to application on the sensor (for details, see Materials and Methods), it cannot be completely ruled out that LRX3^ΔE-FLAG has a reduced solubility in this experiment that would provide an alternative explanation for the observed high Kd.
(§2) The BLITZ experiments were performed as previously described. The LRR^ΔE–FLAG versions of the different LRXs were expressed using the 35S promoter in N. benthamiana, presence of proteins was checked by immunoblotting, and proteins were immune-precipitated as described above. […] Protein concentration was determined by Qubit measurement (Quant-iTTM Protein Assay kit, Invitrogen). […] Different RALF synthetic peptide (PHTD peptides) concentrations (200 μM, 150 μM, 100 μM, 50 μM, 20 μM, 15 μM, 10 μM, 4 μM, 2 μM and 0.2 μM) were added to quantify the protein interaction.
(§3) Supplementary file pgen.1008847.s004.pdf: S4 Fig BLITZ output data. […] Association/dissociation or RALF1 depends on the concentration of applied RALF1, based on which the Kd is calculated. […]

[2] = system: LRX3 (LRX3^ΔE-FLAG); assay: BLITZ (biolayer interferometry) RALF1-LRX3 binding; set-up: species or system Arabidopsis thaliana; conditions: compared with LRX1, LRX4, and LRX5
Method: as §1, §2

[3] = system: LRX1^ΔE; assay: Co-IP of LRX1^ΔE-HA with RALF1-FLAG; type: binding, Arabidopsis thaliana; conditions: Co-IP and immunoblotting, transient expression in N. benthamiana
Method: Here, we tested binding of RALF1 to LRX1.
(§4) For pulldown and Co-IP analysis of the different constructs indicated in the experiments DNA was infiltrated into Nicotiana benthamiana leaves, and after 48 hrs, the leaves were excised and ground in liquid nitrogen as described in [62]. Two hundred mg of tissue powder was re-suspended in 500 μL extraction buffer [200 mM Tris-HCl (pH 7.5), 150 mM NaCl, 1 mM PMSF, protease inhibitor and 0.5% Triton X-100]. The suspension was incubated on ice for 30 minutes and then centrifuged at 11,000 rpm for 20 minutes at 4°C. The supernatant (200 μL) was then incubated with 10 μL anti-HA (Thermo Scientific, 88837), or anti-FLAG magnetic beads overnight at 4°C on a rotating shaker. If RALF1 peptide was added, the peptide was diluted in such way that for every sample 1μL of peptide was added to the protein extracts. After incubation, the beads were washed five times with the wash buffer (extraction buffer containing 0.05% Triton X-100) and boiled in SDS-PAGE loading buffer for 15 minutes at 75°C. The immunoprecipitates were then run on an SDS-PAGE gel and transferred to nitrocellulose membrane to perform immunoblotting using the following antibodies: anti-FLAG M2 (Sigma-Aldrich, F3165), anti-GFP (Biolegend, 902601), anti-HA-HRP 3F10 (Roche, 12 013 819 001) and anti-mouse-HRP (Sigma Aldrich, A 4416). […]

[4] = system: FER; conditions: ref [15],[41]; cited from earlier work
[5] = molecular target: LRX1 (LRX1^ΔE-FLAG); assay: BLITZ (biolayer interferometry) RALF1-LRX1 binding; set-up: species or system Arabidopsis thaliana; conditions: purified LRX^ΔE expressed in N. benthamiana, synthetic RALF1 peptide, association 120 s, dissociation 120 s
Method: as §1, §2, §3

[6] = system: LRX1; assay: Yeast-two-hybrid RALF1-LRX1; type: binding, Arabidopsis thaliana; conditions: Y2H, yeast strain PJ69-4A, growth on -Trp, Leu, His, Ade drop-out medium
From the text: (§5) The BD-LRX4 and AD-FER^ECD constructs for the Yeast-two-hybrid experiment were cloned as previously described, where NtermFER equals AD-FER^ECD and LRR4 equals BD-LRX4. For the BD-LRX1/2/3/5 constructs, the coding sequence of the LRR domain of the LRXs was amplified using primers (S3 Table) to introduce a BamHI and a XhoI site at the 5’ and 3’ end of the PCR fragments, respectively. These were cloned into pJET1.2 (Thermo Scientific) and correct clones were cut with BamHI and XhoI and ligated into pGBKT7 cut with BamHI and SalI. The AD-RALF1 construct was cloned into pJET1.2 (Thermo Scientific) by amplification of the coding sequence with the primers y2h_RALF1_F and y2h_RALF1_R. A correct clone was cut with EcoRI and XmaI and ligated into pGADT7 cut with EcoRI and XmaI.
(§6) Transformation of the yeast strain PJ69-4A [63] was done following standard procedures and quadruple drop-out medium lacking Leu, Trp, His, and Ade were used to screen for positive interactions after 4 days incubation at 30°C. Three different colonies containing both vectors were mixed and plated in triplicates on quadruple drop-out medium.
(§7) Supplementary file pgen.1008847.s002.pdf: S2 Fig Interaction of LRX1 and RALF1 in yeast. The yeast strain PJ69-4A was transformed with pGADT7-RALF1 and pGBKT7-LRR1 or pGBKT7-LRR4, and with either of the constructs with empty plasmids for the negative controls. […]

[7] = system: LRX3, LRX4, and LRX5; conditions: vegetative tissues; ref [40],[41]; cited from earlier work
From the text: LRX proteins were recently identified as high-affinity binding sites for RALF peptides, with the binding spectrum differing among the LRXs. […] Whether and how the binding of RALFs and FER to LRXs influences the interaction of these proteins remains to be investigated. It is also unknown to what extent the different LRXs are functionally similar and whether they share FER as a common interaction ...

[8] = system: LRX4; conditions: ref [15],[41]; cited from earlier work
[9] = system: LRX4; assay: Yeast-two-hybrid RALF1-LRX4; type: binding, Arabidopsis thaliana; conditions: Y2H, yeast strain PJ69-4A, growth on -Trp, Leu, His, Ade drop-out medium
From the text: as §5, §6, §7

[10] = system: LRX1^ΔE-FER^ECD interaction; assay: Co-IP: effect of added RALF1 on LRX1^ΔE-FER^ECD interaction; type: binding, Arabidopsis thaliana; conditions: synthetic RALF1 peptide 50, 100, 200, 1000 nM added to extracts
From the text: In a next step, the dynamics of LRX-RALF1-FER interaction was investigated with a focus on LRX1. To this end, extracts used to show Co-IP of LRX1^ΔE and FER^ECD were supplemented with increasing concentrations of RALF1 peptide.
as §4, with “75°C.” for “75°C. The immunoprecipitates were then run on an SDS-PAGE gel and transferred to nitrocellulose membrane to perform immunoblotting using the following antibodies: anti-FLAG M2 (Sigma-Aldrich, F3165), anti-GFP (Biolegend, 902601), anti-HA-HRP 3F10 (Roche, 12 013 819 001) and anti-mouse-HRP (Sigma Aldrich, A 4416).”

[11] = system: Arabidopsis seedlings; assay: Root growth inhibition assay; type: in vivo, Arabidopsis thaliana; conditions: five days in liquid medium, 1 μM RALF1, student T-test, n = 6, p<0.001 vs control
From the text: Supplementary file pgen.1008847.s003.pdf: S3 Fig Synthetic RALF1 peptide activity. […] Error bars represent standard error of the mean. (PDF) Click here for additional data file.

[12] = molecular target: LRX5 (LRX5^ΔE-FLAG); assay: BLITZ (biolayer interferometry) RALF1-LRX5 binding; set-up: species or system Arabidopsis thaliana; conditions: purified LRX^ΔE expressed in N. benthamiana, synthetic RALF1 peptide, association 120 s, dissociation 120 s
Method: as §1, §2

LRX5 (LRX5^ΔE-FLAG), sequence (Q9SN46 32-405 limits assumed, stated change not applied): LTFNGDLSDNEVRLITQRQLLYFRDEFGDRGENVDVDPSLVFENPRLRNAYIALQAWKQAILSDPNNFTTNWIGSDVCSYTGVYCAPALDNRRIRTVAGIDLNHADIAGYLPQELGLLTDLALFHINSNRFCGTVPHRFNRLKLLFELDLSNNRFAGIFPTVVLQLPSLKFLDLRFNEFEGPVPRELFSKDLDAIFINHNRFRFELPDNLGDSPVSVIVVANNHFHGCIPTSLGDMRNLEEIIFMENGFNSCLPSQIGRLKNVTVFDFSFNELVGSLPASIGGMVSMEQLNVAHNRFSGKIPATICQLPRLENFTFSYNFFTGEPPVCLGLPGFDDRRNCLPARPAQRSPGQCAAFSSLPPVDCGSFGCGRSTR
LRX4 (LRX4^ΔE-FLAG), sequence (Q9LHF1 26-403 limits assumed, stated change not applied): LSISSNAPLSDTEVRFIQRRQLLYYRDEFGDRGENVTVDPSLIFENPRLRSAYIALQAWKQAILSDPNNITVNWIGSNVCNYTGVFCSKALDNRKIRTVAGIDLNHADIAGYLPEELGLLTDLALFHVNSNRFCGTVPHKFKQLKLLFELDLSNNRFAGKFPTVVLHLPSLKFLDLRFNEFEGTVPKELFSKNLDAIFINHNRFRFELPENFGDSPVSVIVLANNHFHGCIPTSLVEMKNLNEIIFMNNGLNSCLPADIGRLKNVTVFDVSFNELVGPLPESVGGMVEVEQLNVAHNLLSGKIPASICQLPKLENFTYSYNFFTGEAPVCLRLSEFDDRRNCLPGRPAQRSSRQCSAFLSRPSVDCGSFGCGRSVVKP
LRX3 (LRX3^ΔE-FLAG), sequence (Q9T0K5 21-388 limits assumed, stated change not applied): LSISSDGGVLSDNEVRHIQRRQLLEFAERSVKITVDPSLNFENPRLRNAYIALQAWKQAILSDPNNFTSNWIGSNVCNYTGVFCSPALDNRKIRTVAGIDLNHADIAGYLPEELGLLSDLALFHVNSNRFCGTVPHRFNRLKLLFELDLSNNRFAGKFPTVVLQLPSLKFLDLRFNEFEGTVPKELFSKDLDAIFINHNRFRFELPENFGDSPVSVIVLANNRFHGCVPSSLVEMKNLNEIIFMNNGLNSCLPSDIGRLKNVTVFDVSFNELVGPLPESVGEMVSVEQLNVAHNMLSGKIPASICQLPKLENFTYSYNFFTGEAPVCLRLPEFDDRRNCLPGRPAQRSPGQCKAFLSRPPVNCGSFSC
LRX1 (LRX1^ΔE-FLAG), sequence (O65375 27-381 limits assumed, stated change not applied): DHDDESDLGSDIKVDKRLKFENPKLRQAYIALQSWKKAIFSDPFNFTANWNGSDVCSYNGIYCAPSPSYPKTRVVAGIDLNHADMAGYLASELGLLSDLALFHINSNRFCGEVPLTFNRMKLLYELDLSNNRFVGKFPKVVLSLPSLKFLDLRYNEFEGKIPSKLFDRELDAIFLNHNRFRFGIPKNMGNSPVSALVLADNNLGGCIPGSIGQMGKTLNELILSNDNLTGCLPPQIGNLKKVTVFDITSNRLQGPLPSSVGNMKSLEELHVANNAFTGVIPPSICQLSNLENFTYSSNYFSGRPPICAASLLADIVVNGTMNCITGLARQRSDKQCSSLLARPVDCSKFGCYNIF

## RALF1: in vitro synthesized RALF1 peptide hormone (PHTD peptides); gene At1G02900; expressed as AD-RALF1 in yeast-two-hybrid (ATTKYISYQSLKRNSVPCSRRGASYYNCQNGAQANPYSRGCSKIARCRS; UniProt Q9SRY3 72-120, looked up)
[1]
  Kd: 5.5 nM
[2]
  affinity of LRX3 for RALF1, in words: much lower affinity
[3]
  interaction with LRX1^ΔE: shows binding to RALF1
[4]
  binding to FER: also interacts with FER
[5]
  Kd: 4.5 nM
[6]
  interaction with LRX1: yeast cells grew effectively in the presence of the two proteins; also recorded: indicates interaction of the LRX proteins with RALF1
[7]
  binding to LRX3, LRX4, and LRX5: reported to bind
[8]
  binding to LRX4: has been shown to bind RALF1
[9]
  interaction with LRX4: indicates interaction of the LRX proteins with RALF1
[10]
  effect on LRX1^ΔE-FER^ECD interaction: does not influence the interaction of LRX1^ΔE with FER^ECD; also recorded: did not affect the interaction between LRX1^ΔE and FER^ECD
[11]
  root growth inhibition: effectively inhibited root growth of Arabidopsis seedlings; also recorded: significantly inhibited root growth
[12]
  Kd: 3.5 nM
